Measured values as given in US20180296586A1, “USE OF NADPH FOR PREPARATION OF A DRUG FOR ANTIPLATELET AGGREGATION” (Chongqing Institute of Bench-to-Bed Bioengineering …, priority 2015, published 2018).

How the values were obtained:
[1] = test system: thrombin-induced platelet aggregation; experiment: Thrombin-induced platelet aggregation after preventive administration of NADPH in rats; type: in vivo, rat; details: NADPH 7.5 mg/kg caudal vein 30 min before blood drawing, thrombin 2U, P<0.01
Procedure: (§1) Normal SD male rats are randomly divided into 2 groups, i.e., a physiological saline group (saline group) and an NADPH (7.5 mg/kg) dosage group in a manner that each group comprises 10 rats. NADPH is injected into the rats through caudal veins 30 min before blood drawing. The rats are subjected to blood drawing from abdominal aorta, 3.8% sodium citrate is used for carrying out anticoagulation treatment according to a drawn blood volume/anticoagulant ratio of 9:1, centrifugation is carried out for 5 min at a rate of 1000 r/min, upper-layer platelet-rich plasma (PRP) is sucked out, remaining blood is subjected to centrifugation for 10 min at a rate of 3000 r/min to prepare platelet-poor plasma (PPP) until the number of platelets is 2*10<8>/mL, and platelet aggregation is detected by adopting a platelet aggregometer Chronolog-590.
The platelet aggregometer is turned on and preheated for 30 min, and light transmittance is adjusted to 100% with PPP as blank control. […]

[2] = test system: ADP-induced platelet aggregation; experiment: ADP-induced platelet aggregation after preventive administration of NADPH in rats; type: in vivo, rat; details: NADPH 7.5 mg/kg caudal vein 30 min before blood drawing, ADP 20 μM, P<0.01
Procedure: as §1
The platelet aggregometer is turned on and preheated for 30 min, and light transmittance is adjusted to 100% with PPP as blank control. APRP sample of the physiological saline group (saline group) and a PRP sample of the NADPH (7.5 mg/kg) dosage group are preheated for 5 min at the temperature of 37 DEG C., the preheated PRP samples are put into the aggregometer, then, a certain amount of ADP (20 μM) is added to induce platelet aggregation, graphic changes in 4 min are recorded, and conditions of ADP-induced platelet aggregation caused by NADPH are observed.

[3] = test system: ADP-induced platelet aggregation; experiment: ADP-induced platelet aggregation of rats, in-vitro administration of NADPH; type: cell-based; details: rat PRP, NADPH 30, 60 and 90 μM in vitro, ADP 20 μM, 4 min; P<0.05, P<0.01 vs ADP group
Procedure: as §1, with “20” for “Normal SD male rats are randomly divided into 2 groups, i.e., a physiological saline group (saline group) and an NADPH (7.5 mg/kg) dosage group in a manner that each group comprises 10 rats. NADPH is injected into the rats through caudal veins 30 min before blood drawing. The”
(§2) The platelet aggregometer is turned on and preheated for 30 min, and light transmittance is adjusted to 100% with PPP as blank control. 0.25mL of NADPH samples of different concentrations (30 μM, 60 μM and 90 μM) are added into PRP, preheating is conducted for 5 min at the temperature of 37 DEG C., the preheated material is put into the aggregometer, then, a certain amount of ADP (20 μM) is added to induce platelet aggregation, graphic changes in 4 min are recorded, and conditions of ADP-induced platelet aggregation caused by NADPH are observed.

[4] = test system: thrombin-induced platelet aggregation; experiment: Thrombin-induced platelet aggregation of rats, in-vitro administration of NADPH; type: cell-based; details: rat PRP, NADPH 30, 60 and 90 μM in vitro, thrombin 2U, 4 min; P<0.05, P<0.01 vs thrombin group
Procedure: as §1, with “20” for “Normal SD male rats are randomly divided into 2 groups, i.e., a physiological saline group (saline group) and an NADPH (7.5 mg/kg) dosage group in a manner that each group comprises 10 rats. NADPH is injected into the rats through caudal veins 30 min before blood drawing. The”
as §2, with “100 %” for “100%”, “0.25 mL” for “0.25mL”, “thrombin (2U)” for “ADP (20 μM)”, “thrombin-induced” for “ADP-induced”

NC(=O)C1=CN([C@@H]2O[C@H](COP(=O)(O)OP(=O)(O)OC[C@H]3O[C@@H](n4cnc5c(N)ncnc54)[C@H](OP(=O)(O)O)[C@@H]3O)[C@@H](O)[C@H]2O)C=CC1 [NADPH, Reduced triphosphopyridine nucleotide]
inhibition of thrombin-induced platelet aggregation [1]: remarkably inhibit thrombin-induced platelet aggregation
inhibition of ADP-induced platelet aggregation [2]: remarkably inhibit ADP-induced platelet aggregation
inhibition of ADP-induced platelet aggregation [3]: inhibits ADP-induced platelet aggregation of rats in a dose-dependent mode
inhibition of thrombin-induced platelet aggregation [4]: inhibits thrombin-induced platelet aggregation of the rats in a dose-dependent mode
